Data set [1] deals with M. tuberculosis (strain H37Rv). As to the kind of experiment: MIC against M. tuberculosis strain H37Rv. Format: cell-based. The following applies: Mycobacterium tuberculosis.
Data set [2] relates to M. bovis BCG cell wall. In kind it is cell-based, Mycobacterium bovis. The following applies: dividing M. bovis BCG in the presence of III-50.
Data set [3] concerns mycolic acid synthesis in M. bovis BCG. Format: cell-based, Mycobacterium bovis. The following applies: M. bovis BCG in the presence of III-50.
Data set [4] concerns M. avium-intracellulare. As to the kind of experiment: MIC / growth inhibition against M. avium-intracellulare. In kind it is cell-based, Mycobacterium avium-intracellulare.
For data set [5], the system named is M. bovis BCG. As to the kind of experiment: microbe, parasite or virus in culture. The following applies: Mycobacterium tuberculosis variant bovis BCG. Format: cell-based.
Data set [6] concerns mycolic acid synthesis in M. avium-intracellulare. As to the kind of experiment: Metabolic labeling, two-dimensional TLC of mycolic acids, M. avium-intracellulare. In kind it is cell-based, Mycobacterium avium-intracellulare. The following applies: M. avium-intracellulare cultures treated with 12.5 μg/ml.
[7] abbreviates: M. tuberculosis strain H37Rv, in vitro, read-out: MIC MTB.
Setting [8] is: M. avium-intracellulare, routinely isoniazid resistant.
Where [9] appears, read: Mycobacterium avium-intracellulare, M. avium-intracellulare, in vitro, read-out: MIC MAI.

In brackets after ≈: the same amount, converted by molar mass. Read-outs that look alike come from different tables or passages of the source.

This is an account of results in patent US7385086B2 (priority 1997, dated 2008).

Regarding `CCCCCCCCCCS(=O)(=O)C=CC(=O)OC` (mixture of isomers) [JRG-I-31(mixture of cisand trans)], the MIC in data set [1] (setting [7]) was 50 µg/mL.
Regarding `CCCCCCCCCCS(=O)(=O)CCC(N)=O` [DI-59], in data set [1] (setting [7]), the MIC is more than 25 µg/mL.
Take `CCCCCCCCS(=O)(=O)CC(N)=O` [HIII-50, n-Octanesulphonylacetamide]: the “cell wall morphology in electron micrographs” value in data set [2] is “disruption of the cell wall”. For the same molecule, the MIC in data set [1] (H37RV) turned out to be 6.5 µg/mL (≈ 27.6 µM); in data set [1] (setting [7]) it was 6.25 µg/mL (≈ 26.6 µM); in data set [4] (setting [9]), 25 µg/mL (≈ 106 µM); in data set [5], 6.25 µg/mL (≈ 26.6 µM); in data set [5] (read-out: MIC BCG), 6.25 µg/mL (≈ 26.6 µM). Besides, the figures for the “mycolic acids by phosphorimage of 2D TLC” value in data set [3] and in data set [6] were “significantly reduced” and “undetectable”, respectively. Besides, the growth inhibition result in data set [4] (setting [8]) was “inhibits”.
For the molecule `CCCCCCCCS(=O)(=O)NCC(=O)O` [HIII-56], the MIC in data set [1] (setting [7]) and in data set [5] (read-out: MIC BCG) was more than 25 µg/mL each time.
Regarding `CCCCCCCC[S+]([O-])CC(=O)OCc1ccccc1` (stereo not shown) [HIII-206a], the MIC in data set [1] (setting [7]) stood at 6.25 µg/mL (≈ 20.1 µM).
The same measure, in the same setting: as for `CCCCCCCCS(=O)(=O)CC(=O)OCc1ccccc1` [HIII-206b], the figure is 12.5 µg/mL (≈ 38.3 µM); as for `CCCCCCCC[S+]([O-])CC(=O)OC` (stereo not shown) [HIII-302], more than 25 µg/mL.
A word on the melting point: it is the temperature, or range, at which the solid turns liquid. The molecule `CCCCCCCCCCS(=O)(=O)/C=C/C(=O)OC` [JRG-I-31] registered a melting point of 62 to 63 °C.
On to `CCCCCCCCCCS(=O)(=O)/C=C/C(=O)O` [JRG-I-43], for which the MIC in data set [1] (setting [7]) was 50 µg/mL (≈ 181 µM).
On to `CCCCCCCCCCS(=O)(=O)/C=C\C(N)=O` [JRG-I-89-1], for which the MIC in data set [1] (setting [7]) came to 25 µg/mL (≈ 90.8 µM).
On the same count and under the same terms, in the case of `CCCCCCCCCCS(=O)(=O)/C=C/C(N)=O` [JRG-I-89-2] it was 12.5 µg/mL (≈ 45.4 µM); in that of `CCCCCCCCCCS(=O)(=O)C=CC(N)=O` [JRG-I-89-3], 6.25 µg/mL (≈ 22.7 µM).
In the case of `CCCCCCCCCCS(=O)(=O)CC(=O)NCCO` [SI-45], the MIC was 12.5 µg/mL (≈ 40.7 µM) in data set [1] (setting [7]) and 25 µg/mL (≈ 81.3 µM) in data set [5] (read-out: MIC BCG).
On to `CCCCCCCCCC[S+]([O-])CC(N)=O` (stereo not shown) [SI-46], for which, in data set [1] (setting [7]), the MIC amounted to 6.25 µg/mL (≈ 25.3 µM).
The same measure, in the same setting: in the case of `CCCCCCCCCCS(=O)(=O)CC(=O)NCC(O)CO` (stereo not shown) [SI-48] it was more than 25 µg/mL; in that of `CC(C)CCCC(C)CCS(=O)(=O)CC(N)=O` (stereo not shown) [SI-52], 6.25 µg/mL (≈ 23.7 µM).
`CCCCCCCCCCS(=O)(=O)CC(N)=O` [SI-73]: the MIC worked out at 3.12 µg/mL (≈ 11.8 µM) in data set [1] (H37RV); 3.12 µg/mL (≈ 11.8 µM) in data set [1] (setting [7]); 12.5 µg/mL (≈ 47.5 µM) in data set [4] (setting [9]); 12.50 µg/mL (≈ 47.5 µM) in data set [4] (dose-response curves, M. avium-intracellular).
`NNC(=O)c1ccncc1` [isoniazid, reference compound] showed an isoniazid resistance level in data set [4] (setting [8]) of more than 2.5 µg/mL.
